Bounds are passed on as bounds.

For one test, the target named is 5HT7 receptor (Homo sapiens, UniProt P34969). Put plainly: Functionality assay on the 5HT7 receptor. The format is biochemical.
Chain of 5HT7 receptor (P34969 whole entry): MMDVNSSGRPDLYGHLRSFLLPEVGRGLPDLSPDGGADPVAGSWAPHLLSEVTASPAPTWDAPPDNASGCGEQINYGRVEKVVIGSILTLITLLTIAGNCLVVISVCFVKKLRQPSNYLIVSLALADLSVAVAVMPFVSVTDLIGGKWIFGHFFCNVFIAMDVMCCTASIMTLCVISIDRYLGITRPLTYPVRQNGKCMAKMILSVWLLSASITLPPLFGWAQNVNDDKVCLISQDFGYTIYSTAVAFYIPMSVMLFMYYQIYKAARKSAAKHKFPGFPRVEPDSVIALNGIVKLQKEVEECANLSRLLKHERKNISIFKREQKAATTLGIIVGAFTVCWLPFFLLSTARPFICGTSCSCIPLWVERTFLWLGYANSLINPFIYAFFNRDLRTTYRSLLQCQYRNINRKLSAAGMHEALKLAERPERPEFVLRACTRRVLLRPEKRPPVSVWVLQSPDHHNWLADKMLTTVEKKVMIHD
Conditions: not given
The source says:
Functionality assay on the 5HT7 receptor were done according to those known in the state of the art.
In general, EC50 refers to the concentration that produces a half-maximal response. One may read the Emax as the size of the effect at its maximum, as opposed to the concentration needed. `Cc1nn(C)c(C)c1-c1cccc(CCN(C)C)c1` [Example 1, Dimethyl-{2-[3-(1,3,5-trimethyl-1H-pyrazol-4-yl)-phenyl]-ethyl}-amine] came in with a concentration for a half-maximal effect (EC50) of 25.5 ± 2 nM and an Emax of 94%.

The subject of the next test is 5-HT1. Put plainly: 5-HT1 IC50.
Conditions: not given
The format is binding.
By IC50 is commonly meant the concentration that inhibits the measured activity by half. With `Cc1nn(C)c(C)c1-c1cccc(CCN(C)C)c1` [Example 1, Dimethyl-{2-[3-(1,3,5-trimethyl-1H-pyrazol-4-yl)-phenyl]-ethyl}-amine], the half-inhibitory concentration (IC50) was more than 1000 nM.

The next test deals with T1, Cloned Human Serotonin Receptor, Subtype 7 (h5HT7) (Homo sapiens, UniProt P34969).
T1 construct: purchased PerkinElmer 6120512; host or cells: CHO cells
T1 sequence (P34969 whole entry): as above
Put plainly: Radioligand binding, [125I]LSD, h5HT7 expressed in CHO cells.
Conditions: not given
As for the experimental part: Radioligand binding assays were performed using the Cloned Human Serotonin Receptor, Subtype 7 (h5HT7), expressed in CHO cells, coated on Flashplate (Basic FlashPlate Cat.: SMP200) from PerkinElmer (Cat.: 6120512). The protocol assay was essentially the recommended protocol in the Technical Data Sheet by PerkinEmer Life and Analytical Sciences. The Mass membrane protein/well was typically […] and the Receptor/well was about 9-10 fmoles. The Flashplate were let equilibrate at room temperature for one hour before the addition of the components of the assay mixture. The binding buffer was: 50 mM Tris-HCl, pH 7.4, containing 10 mM MgCl2, 0.5 mM EDTA and 0.5% BSA. The radioligand was [^125I]LSD at a final concentration of 0.82 nM. Nonspecific binding was determined with 50 μM of Clozapine. The assay volume was 25 μl. TopSeal-A were applied onto Flashplate microplates and they were incubated at room temperature for 240 minutes in darkness. The radioactivity were quantified by liquid scintillation spectrophotometry (Wallac 1450 Microbeta Trilux) with a count delay of 4 minutes prior to counting and a counting time of 30 seconds per well. Competition binding data were analyzed by using the LIGAND program (Munson and Rodbard, LIGAND: A versatile, computerized approach for characterization of ligand-binding systems. Anal. Biochem. 107: 220-239, 1980) and assays were performed in triplicate determinations for each point.
Consider `COc1cccc(Cl)c1-c1cccc(CCN(C)C)c1` [Example 38, [2-(6′-Chloro-2′-methoxy-biphenyl-3-yl)-ethyl]-dimethyl-amine], for which the IC50 stood at 24 ± 2.3 nM.

In the case of `Cc1nn(C)c(C)c1-c1cccc(CCN)c1` [Example 29, 2-[3-(1,3,5-Trimethyl-1H-pyrazol-4-yl)-phenyl]-ethylamine], the IC50 was determined as 4.5 ± 1.5 nM.

As for `CNCCc1cccc(-c2cccnc2OC)c1` [Example 37, {2-[3-(2-Methoxy-pyridin-3-yl)-phenyl]-ethyl}-methyl-amine], the IC50 turned out to be 157 nM.

With `CN(C)CCc1cccc(-c2c(F)cccc2F)c1` [Example 35, [2-(2′,6′-Difluoro-biphenyl-3-yl)-ethyl]-dimethyl-amine], the IC50 was determined as 20.8 nM.

Regarding `COc1ccccc1-c1cccc(CCN(C)C)c1` [Example 21, [2-(2′-Methoxy-biphenyl-3-yl)-ethyl]-dimethyl-amine], the IC50 was 19.9 ± 1.7 nM.

Consider `Cc1cccc(C)c1-c1cccc(CCN(C)C)c1` [Example 9, [2-(2′,6′-Dimethyl-biphenyl-3-yl)-ethyl]-dimethyl-amine], for which the half-inhibitory concentration (IC50) stood at 10.1 ± 0.8 nM.

The compound `CCCN(CCC)CCc1cccc(-c2ccccc2OC)c1` [Example 24, [2-(2′-Methoxy-biphenyl-3-yl)-ethyl]-dipropyl-amine] came in with an IC50 of 84.9 nM.

In turn, `CCN(CC)CCc1cccc(-c2c(C)nn(C)c2C)c1` [Example 3, Diethyl-{2-[3-(1,3,5-trimethyl-1H-pyrazol-4-yl)-phenyl]-ethyl}-amine] returned a half-inhibitory concentration (IC50) of 76.2 nM.

The compound `CCCN(CCC)CCc1cccc(-c2c(C)cccc2C)c1` [Example 12, [2-(2′,6′-Dimethyl-biphenyl-3-yl)-ethyl]-dipropyl-amine] registered an IC50 of 42.6 ± 21.1 nM.

Consider `CCCN(CCC)CCc1cccc(-c2c(C)nn(C)c2C)c1` [Example 4, Dipropyl-{2-[3-(1,3,5-trimethyl-1H-pyrazol-4-yl)-phenyl]-ethyl}-amine], for which the IC50 came to 56.9 ± 17.9 nM.

Compound `CCN(CC)CCc1cccc(-c2c(C)cccc2C)c1` [Example 11, [2-(2′,6′-Dimethyl-biphenyl-3-yl)-ethyl]-diethyl-amine] yielded an IC50 of 43.5 ± 15.9 nM.

Consider `COc1cccc(OC)c1-c1cccc(CCN(C)C)c1` [Example 13, [2-(2′,6′-Dimethoxy-biphenyl-3-yl)-ethyl]-dimethyl-amine], for which the IC50 was determined as 19.7 ± 1.5 nM.

Take `COc1ncccc1-c1cccc(CCN(C)C)c1` [Example 36, {2-[3-(2-Methoxy-pyridin-3-yl)-phenyl]-ethyl}-dimethyl-amine]: the IC50 worked out at 303 nM.

The compound `Cc1nn(C)c(C)c1-c1cccc(CCN(C)C)c1` [Example 1, Dimethyl-{2-[3-(1,3,5-trimethyl-1H-pyrazol-4-yl)-phenyl]-ethyl}-amine] displayed a half-inhibitory concentration (IC50) of 6.1 ± 0.7 nM.

In the case of `COc1cccc(OC)c1-c1cccc(CCN)c1` [Example 33, 2-(2′6′-Dimethoxy-biphenyl-3-yl)-ethylamine], the IC50 is 122 nM.

Consider `CN(C)CCc1cccc(-c2c(Cl)cccc2Cl)c1` [Example 34], for which the IC50 was determined as 5 ± 1.7 nM.

In turn, `CNCCc1cccc(-c2c(Cl)cccc2OC)c1` [Example 39, [2-(6′-Chloro-2′-methoxy-biphenyl-3-yl)-ethyl]-methyl-amine] gave an IC50 of 8.8 nM.

The test is the same for the next values; noted with them: [125I]LSD 0.82 nM, h5HT7 in CHO cells; read-out: 5-HT7 IC50.
Regarding `CCN(CC)CCc1cccc(-c2c(OC)cccc2OC)c1` [Example 15, [2-(2′,6′-Dimethoxy-biphenyl-3-yl)-ethyl]-diethyl-amine], the IC50 was found to be 302 nM.

As for `CCCN(CCC)CCc1cccc(-c2c(C)noc2C)c1` [Example 28, {2-[3-(3,5-Dimethyl-isoxazol-4-yl)-phenyl]-ethyl}-dipropyl-amine], the IC50 was 602 nM.

For the compound `Cc1nn(C)c(C)c1-c1cccc(CCN2CCCC2)c1` [Example 42, 1,3,5-Trimethyl-4-[3-(2-pyrrolidin-1-yl-ethyl)-phenyl]-1H-pyrazole], the IC50 came out at 139 ± 0.7 nM.

Consider `CCN(CC)CCc1cccc(-c2cnn(C)c2)c1` [Example 19, Diethyl-{2-[3-(1-methyl-1H-pyrazol-4-yl)-phenyl]-ethyl}-amine], for which the IC50 stood at 753 nM.

In the case of `CCN(CC)CCc1cccc(-c2ccccc2OC)c1` [Example 23, Diethyl-[2-(2′-methoxy-biphenyl-3-yl)-ethyl]-amine], the half-inhibitory concentration (IC50) was 155 nM.

For `Cc1noc(C)c1-c1cccc(CCN(C)C)c1` [Example 25, {2-[3-(3,5-Dimethyl-isoxazol-4-yl)-phenyl]-ethyl}-dimethyl-amine], the half-maximal inhibitory concentration (IC50) was 802 ± 159 nM.

Consider `CCCN(CCC)CCc1cccc(-c2c(OC)cccc2OC)c1` [Example 16, [2-(2′,6′-Dimethoxy-biphenyl-3-yl)-ethyl]-dipropyl-amine], for which the IC50 amounted to 118 ± 45.9 nM.

On to `Cc1n[nH]c(C)c1-c1cccc(CCN(C)C)c1` [Example 5, {2-[3-(3,5-Dimethyl-1H-pyrazol-4-yl)-phenyl]-ethyl}-dimethyl-amine], for which the IC50 turned out to be 129 ± 16.8 nM.

The values above are taken from patent US20100152252A1, “Heterocyclyl-substituted-ethylamino-phenyl derivatives, their preparation and use as medicaments” (LABORATORIOS DEL DR. ESTEVE,S.A., priority 2006, published 2010).
